Like-named read-outs stand apart in the source and are kept apart here. Blank lines part the entries; values can stand above or below the compound they belong to.
How the values were obtained:
[1] = human, oral; cited from earlier work
genital HSV = conditions: human, oral, cited from earlier work
genital HSV-2 = conditions: human, oral, cited from earlier work
[2] = cited from earlier work
carbonic anhydrase I = assay: carbonic anhydrase inhibition, CA I; format: biochemical
Description: Carbonic anhydrase inhibition can be measured using a carbonic anhydrase I assay as described in Katritzky et al. (J. Med. Chem. 1987, 30:2058) and a […] as described in Iyer et al. (J. Biomol. Screen 2006, 11:782).

carbonic anhydrase II = assay: carbonic anhydrase inhibition, CA II; format: biochemical
[3] = predicted human PK by allometric scaling; conditions: allometric scaling from multiple species
[4] = Dog IV study with and without oral charcoal administration (Example 10); format: in vivo, male non-naïve Beagle dogs; conditions: 0.10 mg/kg
Description: A 0.1 mg/mL solution of Compound 1 in 10% DMSO/10% Solutol HS15/80% Saline was prepared as follows: • 1) 4.63 mg Compound 1 was weighed into appropriately sized tube. • 2) 4.57 mL of DMSO was added into the tube. Vortexed for 2 minutes. • 3) 4.57 mL of Solutol HS15 was added into above tube. Vortexed for 2 minutes. • 4) 36.54 mL of saline was added. Vortex for 1 minute.
A 100 mg/mL suspension of Activated Charcoal in Saline was prepared as follows: • 1) 300 g Activated Charcoal was weighed into appropriately sized tube. • 2) 3000 mL of saline was added into the tube. • 3) Mixture was stirred for 10 minutes, and then sonicated for 10 minutes.
Two groups of Male non-naïve beagles were used for the dog PK study (n=2 per group). The prepared oral formulation was administered via oral administration with 25 gram dose of activated charcoal to Group 2 animals. Immediately after the PO administration, the prepared IV formulation was administered via 10 minutes IV infusion to both Group 1 and Group 2 animals with appropriate dosing volume to achieve the respective doses. Group 1 animals were fed before administration. Group 2 animals were fasted overnight before administration and were fed at 4 hours post oral administration.
At each time point, approximately 0.5 mL of whole blood was collected into K2EDTA tubes. […] Plasma samples were stored at approximately −80° C. until analyzed by LC-MS.

[5] = biorelevant non-sink dissolution experiment; format: physicochemical; conditions: 37° C.
Description: The preliminary dissolution performance of the SD samples and bulk Compound 1 was tested in a biorelevant non-sink dissolution experiment. About 0.5 mg SD samples were dispersed into 6 mL SGF medium firstly and stirred magnetically with 250 rpm at 37° C. After 30 min, 5 mL cFaSSIF-V2 (2×) medium was added into the above medium and adjusted the pH to 6.5 with 100 μL NaHCO3 (80 g/L). At each time point of 15 and 30 min in SGF and 15, 30, 60, 120 min in FaSSIF, 0.5 mL suspension was taken out and centrifuged. The supernatants were analyzed by HPLC.

[6] = tested on: recurrent genital herpes (HSV); conditions: human, oral, 100, 200, 400 and 1200 mg vs placebo; cited from earlier work

Structure (SMILES): C[C@@H](c1ccccc1)N(CC(=O)Nc1ccc(-c2csc(N)n2)cc1)C(=O)c1ccncc1 [BILS-179 BS]
- adverse events in early clinical trials [1]: suspended in early clinical trials due to adverse events

Structure (SMILES): Cc1nc(N(C)C(=O)Cc2ccc(-c3ccccn3)cc2)sc1S(N)(=O)=O [pritelivir, N-Methyl-N-(4-methyl-5-sulfamoyl-1,3-thiazol-2-yl)-2-[4-(pyridin-2-yl)phenyl]acetamide]
- break-through shedding at 75 mg daily (genital HSV; 75 mg daily): break-through shedding remained
- antiviral effect (genital HSV; daily 75 mg vs weekly 400 mg): An oral daily dose of 75 mg had the greatest antiviral effect and this was found to be superior to the less frequently administered weekly dose of 400 mg
- number of days with lesions (genital HSV; genital herpes): reduced the number of days with lesions
- rate of genital HSV shedding (genital HSV; high doses, 28 days): reduced the rate of genital HSV shedding
- genital swabs with HSV shedding (genital HSV-2; 100 mg daily after 400 mg loading dose, 28 days): 2.4%
- free fraction of total plasma concentration [2]: 2-3%
- protein binding ([2]; plasma): 97-98%

Structure (SMILES): CC(C)[C@H](N)C(=O)OCCOCn1cnc2c(=O)[nH]c(N)nc21 [valacyclovir]
- genital swabs with HSV shedding (genital HSV-2; 500 mg daily): 5.3%

- predicted human clearance [3]: 0.06 L/h
- clearance without versus with oral charcoal [4]: slower
- overall exposure without versus with oral charcoal [4]: higher
- Concentration in FaSSIF at 45 min ([5]; FaSSIF (pH 6.5), 45 min): 140 ng/mL
- Concentration in FaSSIF at 60 min ([5]; FaSSIF (pH 6.5), 60 min): 120 ng/mL
- Concentration in FaSSIF at 90 min ([5]; FaSSIF (pH 6.5), 90 min): 140 ng/mL
- Concentration in FaSSIF at 150 min ([5]; FaSSIF (pH 6.5), 150 min): 120 ng/mL
- Concentration in SGF at 15 min ([5]; SGF (pH 1.7), 15 min): 100 ng/mL
- Concentration in SGF at 30 min ([5]; SGF (pH 1.7), 30 min): 70 ng/mL
Structure (SMILES): Cc1nc(N2CCCN(c3ccc(-c4cc(F)ccc4F)cc3)C2=O)sc1S(N)(=O)=O [Compound 1, 2-(3-(2′,5′-difluoro-[1,1′-biphenyl]-4-yl)-2-oxotetrahydropyrimidin-1(2H)-yl)-4-methylthiazole-5-sulfonamide]
- carbonic anhydrase I inhibition (carbonic anhydrase I): no or low levels of carbonic anhydrase inhibition
- carbonic anhydrase II inhibition (carbonic anhydrase II): no or low levels of carbonic anhydrase inhibition

Structure (SMILES): Cc1cccc(C)c1N(CC(=O)Nc1ccc(-c2ncon2)cc1)C(=O)C1CCS(=O)(=O)CC1 [amenamevir]
- time to lesion healing [6]: only significantly different between the very highest 1200 mg single dose group and the placebo-tested group
- adverse events in early clinical trials [1]: suspended from early HSV clinical trials due to adverse events

Source: patent US20260294910A1, “ORAL PHARMACEUTICAL COMPOSITIONS” (Assembly Biosciences, Inc., priority 2023, published 2026)
